Measurements published in paper PMC10965847, “Expanding a peptide-covalent probe hybrid for PET imaging of S. aureus driven focal infections” (EJNMMI Radiopharmacy and Chemistry, 2024).
“Also recorded” adds a separate entry of the source.

Key:
S. aureus, ATCC 25,923 [1] = assay: MIC by resazurin (alamar blue) reduction, broth dilution; type: cell-based; conditions: for growth inhibitory (bacteriostatic) / bactericidal effect on S. aureus: MIC and MBC assays, result in words
Experimental: (§1) The MICs were determined as the lowest concentration at which the conversion of the resazurin dye from blue to pink was absent. Conversely, the minimum bactericidal concentrations (MBC) were determined using the spot assay shown in Fig. 3a, where the absence of a bacterial lawn indicated the minimum required concentration for bacterial killing. […] Although UBI has been previously reported as bactericidal against S. aureus, the experimental conditions and strain utilized were different (Brouwer et al. [2006]).
A single colony of S. aureus, ATCC 25,923 (Microbiologics) was inoculated in Mueller Hinton broth (MHB) and incubated overnight at 120 rpm (revolutions per minute) and 37 °C. The experiment was carried out in a 96-microtiter plate using a broth dilution assay wherein all the peptides (ABI scientific) were diluted two-fold in each step-in media (M9 supplemented with 0.01% Tryptone). Cells were washed twice with media and diluted to a final concentration of 10^5 colony forming units (CFU) at each well. The final volume in each well was 200 µL. […] After 24 h, 30 µL of 0.75 mg/mL of resazurin dye (HiMedia Labs) was added in each of the wells and kept for incubation overnight at 37 °C with mild shaking. The next day, the 96 well plates as well as MHB-agar plates, were observed, and results were recorded. The experiment was carried out in triplicates. As mentioned earlier, S. aureus was cultured and washed with media to carry out a time-kill assay. Experiments were performed in microfuge tubes. ~10^6 cells were incubated with minimum inhibitory concentration (MIC) of UBI-APBA (2 µM) at a final volume of 500 µL adjusted with M9 media. Cells and UBI were incubated in media at 37 °C at 120 rpm. 50 µL aliquots from each reaction mixture were removed at required time intervals. These aliquots were plated on the MHB agar plates and incubated at 37 °C. The following day, colonies were counted to get CFU. Surviving fractions were plotted against time. Origin graphing and analysis 6.0 Pro software was used for plotting and analysis of data.

S. aureus, ATCC 25,923 [2] = assay: MBC by spot assay on MHB-agar; type: cell-based; conditions: 5 µL aliquots from MIC wells spotted on MHB-agar, overnight 37 °C, absence of bacterial lawn, triplicates
Experimental: as §1
A single colony of S. aureus, ATCC 25,923 (Microbiologics) was inoculated in Mueller Hinton broth (MHB) and incubated overnight at 120 rpm (revolutions per minute) and 37 °C. The experiment was carried out in a 96-microtiter plate using a broth dilution assay wherein all the peptides (ABI scientific) were diluted two-fold in each step-in media (M9 supplemented with 0.01% Tryptone). Cells were washed twice with media and diluted to a final concentration of 10^5 colony forming units (CFU) at each well. The final volume in each well was 200 µL. […] After 24 h, 30 µL of 0.75 mg/mL of resazurin dye (HiMedia Labs) was added in each of the wells and kept for incubation overnight at 37 °C with mild shaking. The next day, the 96 well plates as well as MHB-agar plates, were observed, and results were recorded. […] The following day, colonies were counted to get CFU. […]

in vitro = conditions: human, human serum
Experimental: The hydrophilicity of complexes is a predictor of fast renal clearance, which is desirable for diagnostic radiopharmaceuticals.
To assess the stability of the ^68Ga labeled peptide conjugates in PBS, 50 µL of complexes were added to 450 µL of PBS (1:10 dilution) and incubated at 37 °C for 3 h. Aliquots were taken at the end of incubation and analyzed by HPLC, as described previously. Similarly, to estimate the integrity of the ^68Ga complexes in serum, incubation was done with human serum at 1:10 dilution for 3 h at 37 °C. Samples were precipitated with 2% trichloroacetic acid (TCA), separated by centrifuging at 10,000g for 5 min, and analyzed by HPLC.

human erythrocytes = assay: Haemolysis assay; conditions: 30 min, 37 °C, result in words; for haemolysis (positive controls): human erythrocytes 4% (v/v), melittin 17 µM (50 µg/mL), triton X-100 0.1% (v/v); for haemolysis: human erythrocytes 4% (v/v) in PBS, 8, 32 and 128 µM, absorbance 540 nm, duplicates
Experimental: The haemolysis assay is widely used to assess the therapeutic potential of a given AMP. AMPs that cause ruptured RBCs at their MICs naturally have low therapeutic potential.
Fresh human blood samples were obtained from healthy donors with the approval of the institutional medical ethics committee. Erythrocytes were isolated from heparinized human blood by centrifugation at 2000g for 5 min after washing three times with PBS at 4 °C. After removing the supernatant, the cell pellet was resuspended in 2 mL of PBS, and cells were diluted at 4% (v/v) for the haemolysis experiment. […] Samples were centrifuged at 2000g for 5 min, and the absorbance of supernatants was measured at 540 nm using a polarstar omega plate reader from BMG Labtech. Erythrocytes lysed with 0.1% triton X-100 and 50 µg/mL melittin were used as positive controls. Percentage haemolysis was calculated using the formula: Haemolysis (%) = (ASAMPLE − ANG)/(APC − ANG) × 100[ASAMPLE = Absorbance recorded for samples at 540 nm, ANG = Absorbance recorded for untreated (negative control) erythrocytes at 540 nm, APC = Absorbance recorded for Melittin treated (positive control) erythrocytes at 540 nm]. One-way ANOVA was used to establish the presence of significant groups, and Tukey’s test was subsequently utilized to conduct the comparison of means.

HEK 293 cells = assay: Cell cytotoxicity (MTT) assay; conditions: HEK 293, MTT, 24 h, result in words
Experimental: Human embryonic kidney (HEK 293) cells were maintained in DMEM supplemented with 10% FBS and 1% antibiotic-antimycotic solution at 37 °C, 5% CO2 in humidified atmosphere.
Cell cytotoxicity was measured by performing 3-(4,5-dimethylthiazol-2-yl)-2,5-diphenyltetrazolium bromide) (MTT) assay. Briefly, 2000 cells/100 µL were seeded in a 96-well plate and kept overnight in incubator at 37 °C, 5% CO2. […] Melittin (17 µM) was used as a positive control for cytotoxicity assay. Following incubation, 10 µL of MTT was added to each well and after 3 h the supernatant was removed and 100 µL of dimethyl sulfoxide (DMSO) was added. After 1 h incubation, the absorbance was recorded at 570 nm. One-way ANOVA was used to establish the presence of significant groups, and Tukey’s test was subsequently utilized to conduct the comparison of means.

S. aureus = conditions: different experimental conditions and strain; ref Brouwer et al. [2006]; cited from earlier work
Experimental: The MICs were determined as the lowest concentration at which the conversion of the resazurin dye from blue to pink was absent. Conversely, the minimum bactericidal concentrations (MBC) were determined using the spot assay shown in Fig. 3a, where the absence of a bacterial lawn indicated the minimum required concent ...

[3] = In vitro stability of ^68Ga complexes in PBS; type: physicochemical; conditions: 1:10 dilution, 37 °C, 3 h, radio-HPLC
[4] = shake-flask octanol/water 1:1 (25 µL sample + 975 µL water + 1 mL octanol), vortexed, 5 min, centrifuged; NaI(Tl) counting; n = 4
Experimental: Partition coefficients for ^68Ga complexes were determined by mixing 25 µL of sample with 975 µL water and 1 mL octanol (octanol: water = 1:1). Thereafter, the mixture was vortexed and incubated for 5 min, followed by centrifugation for 5 min at 3000 rpm for separation of aqueous and organic phase. NaI (Tl) counter was used to measure the activity associated with both the phases and log P value [logarithm of the activity concentration in n-Octanol / activity concentration in the aqueous layer] was calculated.

S. aureus membrane = assay: Membrane depolarization, DiOC2(3), flow cytometry; type: cell-based; conditions: 5 µM CCCP; DiOC2(3) 30 µM; result in words
Description: AMPs are reported to destroy bacterial cells by permeabilizing the membrane, followed by depolarization (Mitra et al. [2020]; Bhatt Mitra et al. [2020]). To explore if UBI-APBA utilized this strategy to adversely affect the survival of S. aureus, depolarization and permeabilization of S. aureus membrane was studied by flow cytometry. […] Furthermore, we investigated the permeabilization of the S. aureus membrane by assessing propidium iodide uptake (PI).
For the permeabilization study, peptide-treated cells were washed with saline followed by staining with DNA stain, propidium iodide (PI) at a final concentration of 45 µM (30 min at 37 °C and 120 rpm). Isopropanol treated cells were used as positive control. The % permeabilization was calculated after normalizing the values with respect to the untreated (0% permeabilization) and isopropanol treated cells (100% permeabilization).
Positive control for membrane depolarization studies was prepared by incubating bacteria under similar conditions with 5 µM CCCP.

Molecule: Acetyl-cysteine-2-acetyl boronic acid [AcCys-2-APBA]
- growth inhibitory (bacteriostatic) / bactericidal effect on S. aureus (S. aureus, ATCC 25,923 [1]): no such effect
- MIC (S. aureus, ATCC 25,923 [1]; S. aureus ATCC 25,923, two-fold broth dilution in M9 + 0.01% Tryptone, 10^5 CFU per well, 200 µL, resazurin added after 24 h, overnight 37 °C, lowest concentration without blue-to-pink conversion, visual, triplicates): > 32 µM
- MBC (S. aureus, ATCC 25,923 [2]): > 32 µM

Molecule: CSCC[C@H](NC(=O)[C@H](CCCNC(=N)N)NC(=O)[C@H](CCCNC(=N)N)NC(=O)[C@H](CCCCN)NC(=O)[C@H](C)NC(=O)[C@H](CCCNC(=N)N)NC(=O)CNC(=O)[C@@H](NC(=O)CCC(C(=O)O)N1CCN(CC(=O)O)CCN(CC(=O)O)CC1)[C@@H](C)O)C(=O)N[C@@H](CCC(N)=O)C(=O)N[C@@H](Cc1ccc(O)cc1)C(=O)N[C@@H](CC(N)=O)C(=O)N[C@@H](CCCNC(=N)N)C(=O)N[C@@H](CCCNC(=N)N)C(=O)NCC(=O)N[C@@H](CSCCCNC(=O)COc1ccc(C(C)=O)c(B(O)O)c1)C(N)=O (stereo partly shown) [[^68Ga]Ga-UBI-APBA, metal not drawn]
- remaining at 3 h (in vitro): 91%

Molecule: triton X-100
- haemolysis (positive controls) (human erythrocytes): induced haemolysis

Molecule: CSCC[C@H](NC(=O)[C@H](CCCNC(=N)N)NC(=O)[C@H](CCCNC(=N)N)NC(=O)[C@H](CCCCN)NC(=O)[C@H](C)NC(=O)[C@H](CCCNC(=N)N)NC(=O)CNC(=O)[C@@H](N)[C@@H](C)O)C(=O)N[C@@H](CCC(N)=O)C(=O)N[C@@H](Cc1ccc(O)cc1)C(=O)N[C@@H](CC(N)=O)C(=O)N[C@@H](CCCNC(=N)N)C(=O)N[C@@H](CCCNC(=N)N)C(=O)NCC(=O)N[C@@H](CSCCCNC(=O)COc1ccc(C(C)=O)c(B(O)O)c1)C(N)=O [UBI-APBA]
- haemolysis (human erythrocytes): neither hemolytic nor cytotoxic
- cell cytotoxicity (HEK 293 cells; 128 µM (64 × MIC of UBI-APBA), n = 3): minimal cytotoxicity; also recorded: neither hemolytic nor cytotoxic

Molecule: melittin
- haemolysis (positive controls) (human erythrocytes): induced haemolysis
- cell cytotoxicity (positive control) (HEK 293 cells; melittin 17 µM): cytotoxic

Molecule: CSCC[C@H](NC(=O)[C@H](CCCNC(=N)N)NC(=O)[C@H](CCCNC(=N)N)NC(=O)[C@H](CCCCN)NC(=O)[C@H](C)NC(=O)[C@H](CCCNC(=N)N)NC(=O)CNC(=O)[C@@H](N)[C@@H](C)O)C(=O)N[C@@H](CCC(N)=O)C(=O)N[C@@H](Cc1ccc(O)cc1)C(=O)N[C@@H](CC(N)=O)C(=O)N[C@@H](CCCNC(=N)N)C(=O)N[C@@H](CCCNC(=N)N)C(=O)NCC(=O)N[C@@H](CS)C(N)=O [UBI]
- growth inhibitory (bacteriostatic) / bactericidal effect on S. aureus (S. aureus, ATCC 25,923 [1]): no such effect
- haemolysis (human erythrocytes): neither hemolytic nor cytotoxic
- activity against S. aureus as previously reported (S. aureus): bactericidal

Molecule: CSCC[C@H](NC(=O)[C@H](CCCNC(=N)N)NC(=O)[C@H](CCCNC(=N)N)NC(=O)[C@H](CCCCN)NC(=O)[C@H](C)NC(=O)[C@H](CCCNC(=N)N)NC(=O)CNC(=O)[C@@H](NC(=O)CCC(C(=O)O)N1CCN(CC(=O)O)CCN(CC(=O)O)CC1)[C@@H](C)O)C(=O)N[C@@H](CCC(N)=O)C(=O)N[C@@H](Cc1ccc(O)cc1)C(=O)N[C@@H](CC(N)=O)C(=O)N[C@@H](CCCNC(=N)N)C(=O)N[C@@H](CCCNC(=N)N)C(=O)NCC(=O)N[C@@H](CS)C(N)=O (stereo partly shown) [[^68Ga]Ga-UBI, metal not drawn]
- RCP after incubation in PBS [3]: 99%
- remaining at 3 h (in vitro): 97%
- Partition coefficient, Log P [4]: -3.8 ± 0.15

Molecule: N#CC(C#N)=NNc1cccc(Cl)c1 [CCCP, Carbonyl cyanide m-chlorophenyl hydrazone]
- depolarization of bacterial membrane (positive control) (S. aureus membrane): low red to green fluorescence intensity ratio
